Entries after “also recorded” stand apart in the source; their conditions may differ. Where a SMILES comes first, the peptide text is derived from it. Bridges are numbered along the chain shown (N, C = ends).
Key:
[1] = molecular target: T1, Apime-ASTC-R (Apis mellifera, UniProt A0A7M7GNE5); test: Intracellular cAMP reporter assay, HEK293 cells expressing Apime-ASTC-R; assay type: cell-based; settings: CRE-luciferase, IBMX, 10^-14 to 10^-3 M, Fig 5D-E, ASTCC effect at high concentrations (>10 μM)
T1 sequence (A0A7M7GNE5 1-423): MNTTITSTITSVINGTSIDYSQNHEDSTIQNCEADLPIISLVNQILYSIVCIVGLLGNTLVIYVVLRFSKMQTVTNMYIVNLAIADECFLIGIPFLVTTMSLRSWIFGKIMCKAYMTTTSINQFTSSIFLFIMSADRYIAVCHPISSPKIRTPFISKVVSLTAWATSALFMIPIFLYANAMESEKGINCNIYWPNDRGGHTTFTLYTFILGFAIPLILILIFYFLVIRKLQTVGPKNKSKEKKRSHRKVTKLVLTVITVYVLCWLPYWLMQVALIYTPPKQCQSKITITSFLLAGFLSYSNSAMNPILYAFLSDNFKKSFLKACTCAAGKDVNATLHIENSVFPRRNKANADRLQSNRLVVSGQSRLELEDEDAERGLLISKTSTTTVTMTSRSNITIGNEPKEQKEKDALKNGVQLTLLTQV
Method: For intracellular cAMP measurements, cells were bathed in trypsin EDTA and collected, then suspended in fresh DMEM. Transfections with pRK5-ApimeAstC-R, pRK5-ApimeAstA-R or empty pRK5 vector were carried out in 15 ml Falcon tubes. Transfection medium for HEK293 cells was prepared using the Lipofectamine LTX kit (Invitrogen) with 2.5 ml Opti-MEM® (Gibco), 12.5 μl Plus™ Reagent and 4 μg of ApimeASTC-R (or ApimeASTA-R, or empty) expression construct, and 2 μg of CRE(6x)-Luc plasmid. The luciferase ORF, downstream of six tandem repeats of a cyclic AMP responsive element (CRE), in front of a minimum collate promoter, was used as a reporter gene (this reporter plasmid has been used by others)
We followed a previousy published protocol: HEK293 cells in Dulbecco's Modified Eagles Medium nutrient mixture F12-Ham (DMEM/F12, Sigma–Aldrich) supplemented with 10% heat-inactivated fetal bovine serum (Gibco), 100 IU/ml penicillin, 100 μg/ml streptomycin (Gibco) were maintained in an incubator at 37°C with constant supply of 5% CO2, until they reached 60–80% confluence. Cells were then bathed in trypsin EDTA (Gibco) until rounded. The flask was then tapped to loosen the cells, which were subsequently washed off with 5 ml DMEM/F12. The cells were gently centrifuged at 800 rpm for 5 minutes and carefully suspended in fresh DMEM, which was divided in two for transfection with receptor constructs or empty vectors. After 5 min at room temperature, 30 μl LTX was added. After an incubation period of 30 min at room temperature, the DNA/LTX mix was added to the cells. The cells were then aliquoted (100 μl per well) into a clear bottom 96-well plate (Greiner bio-one #655090) and incubated overnight (37°C, 5% CO2).
Prior to measuring cAMP, the cell medium was removed by carefully inverting the 96-well plate on filter paper and quickly replaced with 100 μl of DMEM/F12 without phenol red (Invitrogen), but containing 200 μM 3-isobutyl-1-methylxanthine (IBMX, Sigma–Aldrich) to prevent cAMP breakdown, as well as drugs to be tested. In each experiment, some wells were used to measure basal levels of cAMP in the cells (negative control), while others were used to measure cAMP levels in cells exposed to 10 μM forskolin analogue (NKH-477, Sigma Aldrich, positive control). […] All cells were incubated at 37°C and 5% CO2 for 3–4 h to allow transcription of the reporter gene before 100 μl of freshly reconstituted Steadylite Plus™ substrate (PerkinElmer) was added to each well. The 96-well plate was then placed in the dark for 15 min before light emission resulting from luciferase enzymatic activity was recorded. Measurements lasting 0.2 s/well were taken every 55 s for 10 cycles using a FLUOstar Omega microplate reader (BMG Labtech). Results were analyzed by means of the Omega software packages and further processed by Excel and GraphPad Prism softwares. In order to facilitate comparisons across experiments, bioluminescence levels are expressed relative to those in mock-transfected cells (transfected with the vector devoid of the receptor sequence) untreated with NKH-477, which were arbitrarily set at 100.
To test this prediction, we expressed the two receptors separately in HEK293 cells together with the luciferase reporter gene, downstream of the cAMP response element, CRE, but without exogenous G proteins.

[2] = system: honey bees (Apis mellifera); test: Sucrose responsiveness assessment; assay type: in vivo; settings: 1μM; for sensitivity to sucrose vs control (GLM coefficient ± standard error) / sensitivity to water vs control (GLM coefficient ± standard error): injected 1h before test; for sensitivity to sucrose vs control (GLM coefficient ± standard error): sucrose 0.1–30%, ASTA p = 0.76, ASTC p = 0.55, ASTCC p = 0.13, N = 35, 49, 29 (Fig 10A); for sensitivity to water vs control (GLM coefficient ± standard error): ASTA p = 0.44, ASTC p = 0.30, ASTCC p = 0.22, N = 35, 49, 29
Method: (§1) The vehicle for allatostatins was a saline solution made of PBS containing the protease blocker, 1 mM PMSF (prepared from a 30mM stock solution in 100% ethanol, final concentration of ethanol 3.3%).
(§2) The allatostatins were injected into the head haemolymph after penetrating the median ocellus, either 1 hour before olfactory conditioning or sucrose responsiveness assessment, or immediately after olfactory conditioning. All injections were performed under a binocular microscope. A micromanipulator-controlled Hamilton syringe (Nanofil, equipped with a NF33BV2 needle, WPI) was used to inject approximately 200 nl of peptide solution. To make sure that the solution was properly injected, it was pushed out of the syringe so that a drop was visible and then the drop was put in contact with the haemolymph where it was quickly absorbed thanks to the respiratory movements of the bee. Any bee with excessive bleeding was discarded.
Since sucrose was presented diluted in water, bees were given water ad libitum immediately before testing to ensure that their responses would be elicited by sucrose only. We followed a published protocol: six sucrose solutions of increasing concentration (0.1%, 0.3%, 1%, 3%, 10% and 30%) were presented in succession to the antennae, interspersed with water stimulations to avoid sensitization. For each animal, the presence or absence of a proboscis extension response to each stimulus was recorded.
(§3) Functional data (receptor-mediated calcium, cAMP signals and binding) were plotted and regression curves were fitted using the GraphPad Prism software (San Diego, CA). The learning data were analyzed with generalized linear effects modeling (GLM) for binomial data using the R package lme4 [67]. Response levels recorded in the last conditioning trial were used to assess the effect of treatment on learning. For 1-hour memory and generalization tests, effects of allatostatin treatment were compared for each odor tested. Generalized linear mixed effects modeling (GLMM) was also used to analyze responsiveness to sucrose, with concentration and treatment as fixed factors and the bee identity and solution presented (either sucrose or water) as random factors. […] All statistics were generated in R [68].

[3] = system: honey bees (Apis mellifera); test: Olfactory generalization test; assay type: in vivo; settings: 1μM, injected immediately after conditioning, test 1h later, N = 66, 75, 72; for response to nonanal vs control (GLM coefficient ± standard error): ASTA p = 0.38, ASTC p = 0.41, ASTCC p = 0.30; for response to 1-hexanol vs control (GLM coefficient ± standard error): ASTA p = 0.91, ASTC p = 0.96, ASTCC p = 0.56; for response to 1-nonanol (CS) vs control (GLM coefficient ± standard error): ASTA p = 0.96, ASTC p = 0.37, ASTCC p = 0.10
Method: as §1, §2
Bees that learned to respond to the conditioned stimulus (CS) at the end of conditioning were submitted to a generalization test 1h later. In addition to 1-nonanol (the CS), two novel odorants (nonanal and 1-hexanol) were presented: these were selected according to their respective high and low levels of perceptual similarity with 1-nonanol. All odorants were presented without reinforcement with sucrose. The order of odorant presentations varied across individuals, and the integrity of the reflexive response to sucrose was checked at the end of the test.
as §3

Row | Structure (SMILES) | effect on cAMP levels (bioluminescence), in words [1] | effect on cAMP levels (bioluminescence), in words ([1]; listed as ASTCC) | responsiveness to sucrose or water / feeding, in words [2] | sensitivity to sucrose vs control (GLM coefficient ± standard error) [2] | sensitivity to water vs control (GLM coefficient ± standard error) [2] | response to nonanal vs control (GLM coefficient ± standard error) [3] | response to 1-hexanol vs control (GLM coefficient ± standard error) [3] | response to 1-nonanol (CS) vs control (GLM coefficient ± standard error) [3] | effect on cAMP levels (bioluminescence), in words ([1]; listed as ASTC)
1 | CC(C)[C@@H]1NC(=O)[C@H](C)NC(=O)[C@H](CC(N)=O)NC(=O)[C@H](Cc2ccccc2)NC(=O)[C@H](Cc2ccc(O)cc2)NC(=O)[C@@H](NC(=O)[C@H](CCCNC(=N)N)NC(=O)[C@H](Cc2c[nH]c3ccccc23)NC(=O)[C@H](Cc2ccc(O)cc2)NC(=O)[C@@H](NC(=O)[C@H](CCCNC(=N)N)NC(=O)CNC(=O)[C@H](CCCCN)NC(=O)[C@H](C)NC(=O)[C@H](CCC(N)=O)NC(=O)CN)C(C)C)CSSC[C@@H](C(=O)N[C@@H](Cc2ccccc2)C(=O)O)NC(=O)[C@H]([C@@H](C)O)NC1=O [Apime-ASTCC] (H-GQAKGRVYWRCYFNAVTCF-OH; disulfide 11-18; N-terminus assumed) | increased bioluminescence levels at high concentrations; also recorded: small increase in intracellular cAMP | increased cAMP levels in the cells slightly | responded as well to 50% sucrose stimulations as control bees | 1.21±0.81 | 0.90±0.74 | 0.37±0.36 | 0.20±0.34 | 0.71±0.44 | –
2 | CC(C)[C@@H]1NC(=O)[C@H](C)NC(=O)[C@H](CC(N)=O)NC(=O)[C@H](Cc2ccccc2)NC(=O)[C@H](C)NC(=O)[C@@H](NC(=O)[C@H](CCC(N)=O)NC(=O)[C@H](CCCCN)NC(=O)[C@H](Cc2c[nH]c3ccccc23)NC(=O)[C@H](Cc2ccc(O)cc2)NC(=O)[C@@H](N)CO)CSSC[C@@H](C(=O)N[C@@H](Cc2ccccc2)C(N)=O)NC(=O)[C@H](CO)NC1=O [Apime-ASTC] (H-SYWKQCAFNAVSCF-NH2; disulfide 6-13; N-terminus assumed) | did not change the bioluminescence levels | – | responded as well to 50% sucrose stimulations as control bees | 0.41±0.68 | -0.71±0.68 | 0.29±0.36 | 0.01±0.34 | 0.35±0.40 | failed to increase intracellular cAMP levels

Source: publication PMC4704819, “Honey Bee Allatostatins Target Galanin/Somatostatin-Like Receptors and Modulate Learning: A Conserved Function?” (PLoS ONE, 2016)
